From patent US5091311A, “The production of KSB-1939 macrolides using STR eptomyces hygroscopicus” (Kumiai Chemical Industry Co., Ltd., priority 1987, dated 1992)
Converted amounts (≈) assume the structure as drawn.

Key:
Solubility = assay type: physicochemical; settings: for Solubility in organic solvents: methanol, acetone, ethyl acetate, chloroform and hexane
[1] = Distinction of basic, acidic or neutral; assay type: physicochemical
Twospotted Spider Mite [2] = assay: Test 1 miticidal test against adult female twospotted spider mite; assay type: in vivo, Teranychus urticae Koch; settings: Tetranychus urticae, 48 h, 2 days after treatment, read-out: Corrected mite mortality
From the text: Test 1 (Miticidal Test against Adult Female Twospotted Spider Mite)
(§1) Each of polyethylene-made cups having a diameter of 55 mm and filled with water was covered with a lid through which a hole having a diameter of 10 mm was formed centrally. Absorbent cotton was suspended through the hole of the lid so as to absorb water. A sheet of filter paper was placed on the lid. Two bean leaf disks were place don the filter paper so that the disks were always supplied with water. Using a writing brush, adult female two spotted spider mites were inoculated at a rate of 10 mites per leaf disk. Twenty-four hours later, abnormal mites were removed, and wettable powders which had been prepared in accordance with the procedures of Preparation Examples 4-6 respectively were separately diluted to a predetermined concentration and sprayed to apply 2 mg/cm^2 of the respective agrochemical solutions. The test was conducted dually. Two days after the treatment with the agrochmical solutions, it was determined through a stereoscopic microscope whether the mites were alive or dead. The corrected mite mortality was calculated in accordance with the following equation. [formula]

Brown Rice Planthopper = assay: Test 3 insecticidal test against brown rice planthopper; assay type: in vivo, Nilaparvata lugens Stal; settings: 120 h, larvae, 5 days, 25° C.
Protocol: Test 3 (Insecticidal Test against Brown Rice Planthopper) Wettable powders which had been prepared following the procedures of Preparation Examples 4-6 respectively were diluted with water to a predetermined concentration. Rice stems and leaves were dipped in the resultant solutions and then dried in the air. They were placed in test tubes. Ten brown rice planthopper larvae were placed in each test tube. The test tubes were plugged with absorbent cotton and the larvae were reared for 5 days in a constant-temperature chamber of 25° C. The test was conducted dually. The numbers of larvae were counted after the rearing, whereby mortality values of brown rice planthopper were calculated.

Diamondback Moth = assay: Test 4 insecticidal test against diamondback moth; assay type: in vivo; settings: Plutella xylostella, 120 h, 3rd-instar larvae, 5 days, 25° C.
Protocol: Test 4 (Insecticidal Test against Diamondback Moth)
Wettable powders which had been prepared following the procedures of Preparation Examples 4-6 respectively were diluted with water to a predetermined concentration. Cabbage leaves were dipped in the resultant solutions and then dried in the air. They were placed in polyethylene-madecups having a diameter of 55 mm. Ten 3rd-instar larvae of diamondback moth were placed in each cup. The larvae were reared for 5 days in a constant-temperature chamber of 25° C. The test was conducted dually. The numbers of dead larvae were counted after the rearing, whereby mortality values of diamondback moth were calculated.

Asiatic Rice Borer = assay: Test 5 insecticidal test against Asiatic rice borer; assay type: in vivo, Chilo suppressalis Walker; settings: Chilo suppressalis, 120 h, 3rd-instar larvae, 5 days, 25° C.
Protocol: Test 5 (Insecticidal Test against Asiatic Rice Borer) Wettable powders which had been prepared following the procedures of Preparation Examples 4-6 respectively were diluted with water to a predetermined concentration. Sprouted unhulled rice seeds were dipped in the resultant solutions and then dried in the air. They were placed separately in polyethylene-made cups having a diameter of 55 mm. Ten 3rd-instar larvae of asiatic rice borer were placed in each cup. The larvae were reared for 5 days in a constant-temperature chamber of 25° C. The test was conducted dually. The numbers of dead larvae were counted after the rearing, whereby mortality values of asiatic rice borer were calculated.

[3] = tested on: microfilariae of Dirofilaria immitis; assay: microbe, parasite or virus in culture; settings: 240 h, read-out: LD50
Haemonchus concurtus = assay: Test 10 test against sheep nematode; assay type: in vivo, Haemonchus concurtus (in sheep); settings: oral drench into rumen, once
Protocol: Test 10 (Test against Sheep Nematode) A test was conducted using sheep which had been infected with Haemonchus concurtus. Namely, KSB-1939H4 of this invention was formulated into oral drenches. Four sheep which had been infected artificially with Haemonchus concurtus were administered with the compound by injecting the oral drenches into their rumens respectively. They were treated only once by a single dosage of 0.5 mg/kg-body weight or 1.0 mg/kg-body weight. Evaluation was conducted by comparing the number of eggs contained in feces excreted from each sheep before the treatment with that of eggs contained in feces excreted from the sheep after the treatment.

Kanzawa spider mite = assay: Test 2 LC50 against Kanzawa spider mite; assay type: in vivo, Tetranychus kanzawai Kishida; settings: 48 h; for LC50: Tetranychus kanzawai, following procedure of Test 1
From the text: as §1
(§2) Following the procedure of Test 1, tests were conducted with respect to Kanzawa spider mite and twospotted spider mite so that their LC50 values were determined. Milbemycin was used as a control.

Twospotted Spider Mite [4] = assay: Test 2 LC50 against twospotted spider mite; assay type: in vivo, Teranychus urticae Koch; settings: 48 h; for LC50: Tetranychus urticae, following procedure of Test 1
From the text: as §1, §2

Ancylostoma caninum = assay: Test 8 test against dog nematodes (Ancylostoma caninum); assay type: in vivo, Ancylostoma caninum (in dogs); settings: dogs, once
Protocol: (§3) Test 8 (Test against Dog Nematodes) A test was conducted using dogs which had been infected naturally with Ancylostoma caninum or Toxocara canis. Namely, using 8 hybrid dogs of 2 months old, KSB-1939H2 according to this invention was administered subcutaneously at a dosage of 0.1 mg/kg-body weight or orally at a dosage of 0.5 mg/kg-body weight. Administration was effected only once. Evaluation was conducted by comparing the number of eggs contained in feces excreted from each dog before the treatment with that of eggs contained in feces excreted from the dog after the treatment.

Toxocara canis = assay: Test 8 test against dog nematodes (Toxocara canis); assay type: in vivo, Toxocara canis (in dogs); settings: dogs, once
Protocol: as §3

Toxocara cati = assay: Test 9 test against cat nematode; assay type: in vivo, Toxocara cati (in cats); settings: cats
Protocol: Test 9 (Test against Cat Nematode) A test was conducted using cats which had been infected naturally with Toxocara cati. Namely, 4 hybrid cats infected with the nematode were administered with KSB-1939H2 of this invention at a dosage of 0.05 mg/kg-body weight in the case of subcutaneous administration or at a dosage of 0.1 mg/kg-body weight in the case of oral administration. Evaluation was conducted by comparing the number of eggs contained in feces excreted from each cat before the treatment with that of eggs contained in feces excreted from the cat after the treatment.

[5] = Test 11 acute toxicity test (oral), rat; set-up: species or system rat (F344); settings: in vivo, male
From the text: (§4) Test 11 (Acute Toxicity Test)
(§5) The acute toxicity (oral) of one of the compounds of this invention was investigated using rats (male and female, F344, 7 weeks old) and mice (male and female, B6 C3 F1, 7 weeks old).

[6] = Test 11 acute toxicity test (oral), mouse; set-up: species or system mouse (B6 C3 F1); settings: in vivo, male
From the text: as §4, §5

Compound	Solubility in organic solvents (Solubility)	Solubility in water (Solubility)	Distinction of basic, acidic or neutral [1]	mortality at 1 ppm (Twospotted Spider Mite [2])	mortality at 0.2 ppm (Asiatic Rice Borer)	mortality at 1 ppm (Asiatic Rice Borer)	LC50 [3]	mortality at 0.2 ppm (Twospotted Spider Mite [2])	mortality at 1 ppm (Brown Rice Planthopper)	mortality at 5 ppm (Brown Rice Planthopper)	LD50 [6]	other results
CC1=CCC2CC(CC3(CCC(C)C(C)O3)O2)OC(=O)C2C=C(COC(=O)CCC(C)C)C(O)C3OCC(=CC=CC(C)C1)C23O (stereo not shown) [KSB-1939H5]	Soluble	Insoluble	Neutral	100%	90%	100%	1.6 µg/mL (≈ 2.49 µM)					mortality at 5 ppm (Twospotted Spider Mite [2]): 100%; mortality at 25 ppm (Brown Rice Planthopper): 95%; mortality at 25 ppm (Diamondback Moth): 100%
CCCC(=O)OCC1=CC2C(=O)OC3CC(CC=C(C)CC(C)C=CC=C4COC(C1O)C42O)OC1(CCC(C)C(C)O1)C3 (stereo not drawn) [KSB-1939L3β]	Soluble	Insoluble	Neutral									
CCC(C)=CC(=O)OCC1=CC2C(=O)OC3CC(CC=C(C)CC(C)C=CC=C4COC(C1O)C42O)OC1(CCC(C)C(C)O1)C3 (stereo not shown) [KSB-1939H4]	Soluble	Insoluble	Neutral	100%	90%	100%	3.3 µg/mL (≈ 5.15 µM)	100%	65%	100%		mortality at 0.04 ppm (Twospotted Spider Mite [2]): 94.2%; activities (eggs in feces before and after treatment) (Haemonchus concurtus; 0.5 mg/kg): 80-90%; activities (eggs in feces before and after treatment) (Haemonchus concurtus; 1.0 mg/kg): 100%
Milbemycin [reference compound]												LC50 Kanzawa spider mite (Kanzawa spider mite; kanzawa spider mite, in vivo): 0.485 ppm; LC50 Twospotted spider mite (Twospotted Spider Mite [4]; twospotted spider mite, in vivo): 0.339 ppm
CC(C)=CC(=O)OCC1=CC2C(=O)OC3CC(CC=C(C)CC(C)C=CC=C4COC(C1O)C42O)OC1(CCC(C)C(C)O1)C3 (stereo not shown) [KSB-1939H2]	Soluble	Insoluble	Neutral	100%	90%	100%	3.4 µg/mL (≈ 5.42 µM)	100%	95%	100%	> 5000 mg/kg	mortality at 0.004 ppm (Twospotted Spider Mite [2]; 0.004 ppm): 70.1%; LC50 (Kanzawa spider mite): 0.0465 µg/mL (≈ 0.0742 µM); LC50 (Twospotted Spider Mite [4]): 0.0249 µg/mL (≈ 0.0397 µM); activities (eggs in feces before and after treatment) (Ancylostoma caninum; oral 0.5 mg/kg): 100%; activities (eggs in feces before and after treatment) (Ancylostoma caninum; subcutaneous 0.1 mg/kg): 100%; activities (eggs in feces before and after treatment) (Toxocara canis; oral 0.5 mg/kg): 100%; activities (eggs in feces before and after treatment) (Toxocara canis; subcutaneous 0.1 mg/kg): 100%; activities (eggs in feces before and after treatment) (Toxocara cati; oral 0.1 mg/kg): 100%; activities (eggs in feces before and after treatment) (Toxocara cati; subcutaneous 0.05 mg/kg): 100%; LD50 [5]: > 5000 mg/kg
CCC1OC2(CCC1C)CC1CC(CC=C(C)CC(C)C=CC=C3COC4C(O)C(COC(=O)C=C(C)C)=CC(C(=O)O1)C34O)O2 (stereo not shown) [KSB-1939S5]	Soluble	Insoluble	Neutral	100%			3.5 µg/mL (≈ 5.46 µM)	100%	85%	100%	> 5000 mg/kg	mortality at 0.04 ppm (Twospotted Spider Mite [2]): 45.7%; LC50 (Kanzawa spider mite): 0.0643 µg/mL (≈ 0.1 µM); LC50 (Twospotted Spider Mite [4]): 0.0339 µg/mL (≈ 0.0529 µM)
CC1=CCC2CC(CC3(CCC(C)C(C)O3)O2)OC(=O)C2C=C(COC(=O)CC(C)C)C(O)C3OCC(=CC=CC(C)C1)C23O (stereo not shown) [KSB-1939H3]	Soluble	Insoluble	Neutral	100%			1.5 µg/mL (≈ 2.39 µM)	100%		65%	> 5000 mg/kg	mortality at 5 ppm (Twospotted Spider Mite [2]): 100%; mortality at 25 ppm (Brown Rice Planthopper): 100%; mortality at 25 ppm (Diamondback Moth): 100%
CC1=CCC2CC(CC3(CCC(C)C(C)O3)O2)OC(=O)C2C=C(COC(=O)C(C)C)C(O)C3OCC(=CC=CC(C)C1)C23O (stereo not drawn) [KSB-1939L3α]	Soluble	Insoluble	Neutral									
CC1=C[C@H]2C(=O)O[C@H]3C[C@@H](C/C=C(\C)C[C@@H](C)/C=C/C=C4\CO[C@H]([C@@H]1O)[C@@]42O)O[C@@]1(CC[C@H](C)[C@@H](C(C)C)O1)C3 [Milbemycin D, reference compound]							7.5 µg/mL (≈ 13.5 µM)					
